Laboratory results: the supplement of paper PMC5752671

Key:
Assay in all cases: area under dose-response curve (cell viability) (AUC (arbitrary, % viability x log concentration)); higher = less sensitive (more viable)
Settings in all cases: 4 days
KASUMI1 = system: KASUMI1
Protocol: (§1)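 14 AML cell lines were plated on extracellular-matrix-coated 384-well plates and exposed to each drug at 8 concentrations (4-5 logs within 1e-12 to 1e-4 M, tailored per drug) in duplicate. Viability was read by CellTiter-Glo after 4 days. The dose-response (averaged over duplicates) was fitted to a 4-parameter sigmoid, and the area under the curve was taken as the sensitivity measure.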

THP-1 = system: THP-1
Protocol: as §1

OCI-AML2 = system: OCI-AML2
Protocol: as §1

U937 = system: U937
Protocol: as §1

MOLM/13 = system: MOLM/13
Protocol: as §1

HL60 = system: HL60
Protocol: as §1

SKM1 = system: SKM1
Protocol: as §1

EOL-1 = system: EOL-1
Protocol: as §1

MOLM/16 = system: MOLM/16
Protocol: as §1

OCI-AML3 = system: OCI-AML3
Protocol: as §1

Row | SMILES | area under dose-response curve (KASUMI1) | area under dose-response curve (THP-1) | area under dose-response curve (OCI-AML2) | area under dose-response curve (U937) | area under dose-response curve (MOLM/13) | area under dose-response curve (HL60) | area under dose-response curve (SKM1) | area under dose-response curve (EOL-1) | area under dose-response curve (MOLM/16) | area under dose-response curve (OCI-AML3)
1 | CC(=O)c1c(C)c2cnc(Nc3ccc(N4CCNCC4)cn3)nc2n(C2CCCC2)c1=O | 452 | 531 | 385 | 393 | 439 | 474 | 438 | 417 | 511 | 433
2 | CC(C)CC(=O)Nc1n[nH]c2c1CN(C(=O)C1CCN(C)CC1)C2(C)C | 463 | 476 | 268 | 283 | 329 | 522 | 336 | 353 | 268 | 281
3 | CN1CC[C@@H](NC(=O)Nc2ccc(C#N)cc2)C[C@@H]1c1nc2ccccc2[nH]1 | 664 | 655 | 559 | 608 | 583 | 632 | 624 | 642 | 587 | 588
4 | COc1ccc(-c2cc3c(C)nc(N)nc3n([C@H]3CC[C@H](OCCO)CC3)c2=O)cn1 | 403 | 451 | 413 | 397 | 423 | 414 | 399 | 385 | 378 | 402
5 | COc1ccc2c(c1)CCC1C2CCC2(C)C(NCCCCCCN3C(=O)C=CC3=O)CCC12 (stereo not given) | 509 | 608 | 656 | 589 | 658 | 512 | 608 | 523 | 632 | 547
6 | Cc1cnc(Nc2ccc(OCCN3CCCC3)cc2)nc1Nc1cccc(S(=O)(=O)NC(C)(C)C)c1 | 544 | 624 | 505 | 562 | 400 | 617 | 518 | 389 | 392 | 540
7 | NC(=O)c1ccc(-c2nc(-c3ccccn3)c(-c3ccc4c(c3)OCO4)[nH]2)cc1 | 822 | 796 | 619 | 695 | 692 | 824 | 722 | 600 | 653 | 712
8 | O=C(NC[C@H](O)CO)c1ccncc1Nc1ccc(I)cc1F | 323 | 421 | 109 | 536 | 520 | 276 | 194 | 347 | 402 | 150
9 | O=C(NOC[C@H](O)CO)c1ccc(F)c(F)c1Nc1ccc(I)cc1F | 299 | 414 | 57.4 | 505 | 492 | 209 | 83.9 | 297 | 350 | 109
10 | O=C1NC(=O)/C(=C\c2ccc3nccnc3c2)S1 | 642 | 679 | 634 | 648 | 637 | 647 | 637 | 679 | 618 | 647
11 | O=C1NC(=O)c2c1c1c3ccccc3n3c1c1c2c2ccccc2n1[C@H]1CC[C@@H]3O1 | 639 | 750 | 571 | 679 | 606 | 751 | 656 | 522 | 577 | 649
12 | OCCn1cc(-c2cnc3nnn(Cc4ccc5ncccc5c4)c3n2)cn1 | 638 | 662 | 540 | 604 | 566 | 645 | 616 | 616 | 592 | 552
13 | Nc1ncnc2c1c(I)cn2[C@@H]1O[C@H](CO)[C@@H](O)[C@H]1O [5-Iodotubercidin] | 461 | 530 | 489 | 501 | 427 | 457 | 559 | 470 | 403 | 571
14 | CC1(C)CCC(c2ccc(Cl)cc2)=C(CN2CCN(c3ccc(C(=O)NS(=O)(=O)c4ccc(N[C@H](CCN5CCOCC5)CSc5ccccc5)c(S(=O)(=O)C(F)(F)F)c4)cc3)CC2)C1 [ABT-263] | 490 | 612 | 504 | 620 | 542 | 496 | 626 | 495 | 540 | 643
15 | Cl[TeH]1(Cl)(Cl)OCCO1.N [AS101] | 691 | 626 | 547 | 584 | 556 | 703 | 605 | 626 | 561 | 571
16 | O=C(NC1CCNCC1)c1n[nH]cc1NC(=O)c1c(Cl)cccc1Cl [AT-7519] | 519 | 500 | 406 | 414 | 431 | 544 | 415 | 437 | 514 | 460
17 | CN1CCN(CCOc2cc(OC3CCOCC3)c3c(Nc4c(Cl)ccc5c4OCO5)ncnc3c2)CC1 [AZD0530] | 772 | 783 | 646 | 663 | 671 | 818 | 736 | 565 | 666 | 705
18 | COc1cc2c(Oc3ccc4[nH]c(C)cc4c3F)ncnc2cc1OCCCN1CCCC1 [AZD2171] | 673 | 751 | 668 | 724 | 659 | 785 | 640 | 263 | 686 | 687
19 | NC(=O)Nc1cc(-c2cccc(F)c2)sc1C(=O)N[C@H]1CCCNC1 [AZD7762] | 408 | 365 | 348 | 341 | 5.84 | 471 | 271 | 6.62 | 387 | 415
